In brackets after ≈: the same amount, converted by molar mass. Read-outs that look alike come from different tables or passages of the source. Values belong to the molecule of their own block, whether it stands above or below them.
Assays:
[1] = Bio-availability: blood plasma level after injection of calves; assay type: in vivo
Description: As a measure of bio-availability, the blood plasma level of the compounds is determined on several days after the injection of calves with, in each case, 1 mg of compound/kg body weight.

[2] = Physico-chemical characteristics: solubilities; assay type: physicochemical
Ctenocephalides felis = assay: Action against fleas (infested dogs, oral); assay type: in vivo, Ctenocephalides felis (on dogs); settings: 50 mg kg-1 day-1, dogs
Description: Dogs having the proven ability to support a flea population permanently are infested with 100 cat fleas Ctenocephalides felis Bouche. The infested dogs are then divided into 3 groups of 2 animals. […] The test compound is administered in the form of an aqueous suspension (by means of a syringe). The third group of animals is not treated and serves as a control group.
After 3, 8 and 10 days, the eggs of the fleas are collected from the paper which is under the dog cages. The eggs are counted, placed on a medium suitable for the culture of larvae and incubated. A count is made of the resulting pupae and fully grown fleas.

[3] = test system: Lucilia sericata and L. cuprina; assay: Action against blowflies; assay type: in vivo; settings: 6.4 ppm, after at the most 96 h
Description: Freshly deposited eggs of the blowfly species Lucilia sericata and L. cuprina are placed in small portions (30 to 50 eggs) into each of a number of test tubes in which 4 ml of nutrient medium have been mixed with 1 ml of test solution at the intermediate dilution of the active ingredient necessary to obtain the final concentration. After inoculating the culture medium, the test tubes are sealed with cotton wool plugs and are then incubated in an incubator at 30° C. for 4 days. In the untreated medium, larvae about 1 cm in length (stage 3) have developed by the end of this 4-day period. When a compound is active the larvae are by the end of this period either dead or distinctly retarded. Four tests are carried out simultaneously with concentrations of 100, 40, 16 and 6.4 ppm, respectively. The activity is measured according to the lowest concentration that is still fully active (LC 100).

[4] = hexane, organic solvent or mixture, read-out: solubility in hexane
[5] = water, read-out: solubility in water

Compound: O=C(NC(=O)c1c(F)cccc1F)Nc1ccc(Cl)c(Oc2ncc(C(F)(F)F)cc2Cl)c1 [(A)]
- concentration at 24 h ([1]; bovine, plasma, 1 mg/kg, day 1, calf 1, 1 mg/kg injection): 7 ng/mL
- concentration at 24 h ([1]; bovine, plasma, 1 mg/kg, day 1, calf 2, 1 mg/kg injection): 5 ng/mL
- concentration at 168 h ([1]; bovine, plasma, 1 mg/kg, day 7, calf 1, 1 mg/kg injection): 3 ng/mL
- concentration at 168 h ([1]; bovine, plasma, 1 mg/kg, day 7, calf 2, 1 mg/kg injection): 4 ng/mL
- concentration at 336 h ([1]; bovine, plasma, 1 mg/kg, day 14, calf 1, 1 mg/kg injection): 4 ng/mL
- concentration at 336 h ([1]; bovine, plasma, 1 mg/kg, day 14, calf 2, 1 mg/kg injection): 9 ng/mL
- concentration at 504 h ([1]; bovine, plasma, 1 mg/kg, day 21, calf 1, 1 mg/kg injection): 7 ng/mL
- concentration at 504 h ([1]; bovine, plasma, 1 mg/kg, day 21, calf 2, 1 mg/kg injection): 10 ng/mL
- concentration at 672 h ([1]; bovine, plasma, 1 mg/kg, day 28, calf 1, 1 mg/kg injection): 6 ng/mL
- concentration at 672 h ([1]; bovine, plasma, 1 mg/kg, day 28, calf 2, 1 mg/kg injection): 5 ng/mL
- concentration at 840 h ([1]; bovine, plasma, 1 mg/kg, day 35, calf 1, 1 mg/kg injection): 6 ng/mL
- concentration at 840 h ([1]; bovine, plasma, 1 mg/kg, day 35, calf 2, 1 mg/kg injection): 10 ng/mL
- concentration at 1008 h ([1]; bovine, plasma, 1 mg/kg, day 42, calf 1, 1 mg/kg injection): 9 ng/mL
- concentration at 1008 h ([1]; bovine, plasma, 1 mg/kg, day 42, calf 2, 1 mg/kg injection): 6 ng/mL
- concentration at 1176 h ([1]; bovine, plasma, 1 mg/kg, day 49, calf 1, 1 mg/kg injection): 4 ng/mL
- concentration at 1176 h ([1]; bovine, plasma, 1 mg/kg, day 49, calf 2, 1 mg/kg injection): 4 ng/mL
- concentration at 1344 h ([1]; bovine, plasma, 1 mg/kg, day 56, calf 1, 1 mg/kg injection): 5 ng/mL
- concentration at 1344 h ([1]; bovine, plasma, 1 mg/kg, day 56, calf 2, 1 mg/kg injection): 5 ng/mL
- concentration at 1512 h ([1]; bovine, plasma, 1 mg/kg, day 63, calf 1, 1 mg/kg injection): 4 ng/mL
- concentration at 1512 h ([1]; bovine, plasma, 1 mg/kg, day 63, calf 2, 1 mg/kg injection): 6 ng/mL
- concentration at 1680 h ([1]; bovine, plasma, 1 mg/kg, day 70, calf 1, 1 mg/kg injection): 7 ng/mL
- concentration at 1680 h ([1]; bovine, plasma, 1 mg/kg, day 70, calf 2, 1 mg/kg injection): 5 ng/mL
- concentration at 1848 h ([1]; bovine, plasma, 1 mg/kg, day 77, calf 1, 1 mg/kg injection): 5 ng/mL
- concentration at 1848 h ([1]; bovine, plasma, 1 mg/kg, day 77, calf 2, 1 mg/kg injection): 2 ng/mL
- concentration at 2016 h ([1]; bovine, plasma, 1 mg/kg, day 84, calf 1, 1 mg/kg injection): 7 ng/mL
- concentration at 2016 h ([1]; bovine, plasma, 1 mg/kg, day 84, calf 2, 1 mg/kg injection): 7 ng/mL
- Cmax ([1]; bovine, plasma, calves, injection, 1 mg/kg, read-out: maximum concentration in the blood (plasma)): 7 to 10 ng/mL
- persistence of blood plasma level ([1]; level of 7 to 10 ppb, calves, 1 mg/kg): maintained over a relatively long period
- solubility [2, 4]: 3 µg/mL (≈ 5.93 µM)
- solubility in isopropanol [2]: 0.09%
- solubility in n-octanol [2]: 0.065%
- solubility [2, 5]: 0.02 µg/mL (≈ 0.0395 µM)

- concentration at 24 h ([1]; bovine, plasma, 1 mg/kg, day 1, calf 3, 1 mg/kg injection): 126 ng/mL
- concentration at 24 h ([1]; bovine, plasma, 1 mg/kg, day 1, calf 4, 1 mg/kg injection): 185 ng/mL
- concentration at 168 h ([1]; bovine, plasma, 1 mg/kg, day 7, calf 3, 1 mg/kg injection): 48 ng/mL
- concentration at 168 h ([1]; bovine, plasma, 1 mg/kg, day 7, calf 4, 1 mg/kg injection): 66 ng/mL
- concentration at 336 h ([1]; bovine, plasma, 1 mg/kg, day 14, calf 3, 1 mg/kg injection): 16 ng/mL
- concentration at 336 h ([1]; bovine, plasma, 1 mg/kg, day 14, calf 4, 1 mg/kg injection): 27 ng/mL
- concentration at 504 h ([1]; bovine, plasma, 1 mg/kg, day 21, calf 3, 1 mg/kg injection): 10 ng/mL
- concentration at 504 h ([1]; bovine, plasma, 1 mg/kg, day 21, calf 4, 1 mg/kg injection): 12 ng/mL
- concentration at 672 h ([1]; bovine, plasma, 1 mg/kg, day 28, calf 3, 1 mg/kg injection): 5 ng/mL
- concentration at 672 h ([1]; bovine, plasma, 1 mg/kg, day 28, calf 4, 1 mg/kg injection): 6 ng/mL
- concentration at 840 h ([1]; bovine, plasma, 1 mg/kg, day 35, calf 3, 1 mg/kg injection): 2 ng/mL
- concentration at 840 h ([1]; bovine, plasma, 1 mg/kg, day 35, calf 4, 1 mg/kg injection): 4 ng/mL
- Blood plasma level ([1]; day 42, calf 3, 1 mg/kg injection): 0 ppb
- Blood plasma level ([1]; day 42, calf 4, 1 mg/kg injection): 0 ppb
- Blood plasma level ([1]; day 49, calf 3, 1 mg/kg injection): 0 ppb
- Blood plasma level ([1]; day 49, calf 4, 1 mg/kg injection): 0 ppb
- Blood plasma level ([1]; day 56, calf 3, 1 mg/kg injection): 0 ppb
- Blood plasma level ([1]; day 56, calf 4, 1 mg/kg injection): 0 ppb
- Blood plasma level ([1]; day 63, calf 4, 1 mg/kg injection): 0 ppb
- Blood plasma level ([1]; day 70, calf 4, 1 mg/kg injection): 0 ppb
- Blood plasma level ([1]; day 77, calf 4, 1 mg/kg injection): 0 ppb
- Blood plasma level ([1]; day 84, calf 4, 1 mg/kg injection): 0 ppb
- blood plasma values compared with (A) ([1]; very rapidly after administration, calves, 1 mg/kg): higher blood plasma values
- solubility [2, 4]: ~60 µg/mL (≈ 115 µM)
- solubility in isopropanol [2]: 0.30%
- solubility in n-octanol [2]: 0.56%
- solubility [2, 5]: 0.11 µg/mL (≈ 0.211 µM)
Compound: Nc1ccc(F)c(C(=O)NC(=O)Nc2ccc(Cl)c(Oc3ncc(C(F)(F)F)cc3Cl)c2)c1F [Compound 1.1, N-[3-(3-chloro-5-trifluoromethylpyridyl-2-oxy)-4-chlorophenyl]-N'-[2,6-difluoro-3-aminobenzoyl]-urea]
- bio-availability compared with (A) ([1]; calves, injection, 1 mg/kg): distinctly better bio-availability than does compound (A)
- excretion compared with (A) ([1]; calves, injection, 1 mg/kg): excreted considerably more rapidly than (A)
- reaching of high concentration in the blood plasma ([1]; calves, injection, 1 mg/kg): a high concentration in the blood plasma is reached very rapidly
- activity (Ctenocephalides felis): more than 50%

Compound: Nc1ccc(F)c(C(=O)NC(=O)Nc2ccc(F)c(Oc3ncc(C(F)(F)F)cc3Cl)c2)c1F [Compound 1.6, N-[3-(3-chloro-5-trifluoromethylpyridyl-2-oxy)-4-fluorophenyl]-N'-[2,6-difluoro-3-aminobenzoyl]-urea]
- activity (Ctenocephalides felis): more than 50%

Compound: Nc1ccc(F)c(C(=O)NC(=O)Nc2ccc(Cl)c(Oc3ncc(C(F)(F)C(F)(Cl)Cl)cc3Cl)c2)c1F [Compound 1.9]
- mortality of the larvae [3]: 100%

Compound: Nc1ccc(F)c(C(=O)NC(=O)Nc2cccc(Sc3ncc(C(F)(F)F)cc3Cl)c2)c1F [Compound 1.12]
- activity (Ctenocephalides felis): more than 50%

From patent US4946854A, “3-aminobenzoylphenylureas useful for controlling parasites and insects that attack domestic animals and livestock” (priority 1987, dated 1990)
